Reference: ChEMBL document CHEMBL1201862, “PubChem BioAssay data set” (2004)
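All cell lines were grown in 96-well plates and treated with compound for 48 hours. GI50 marks 50% less growth.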 Active and inactive are the calls of the source. No stated cut-off is given here; in the data, active = GI50 up to about 1.1 µM and inactive = higher.

Key:
Experiment in all cases: NCI tumour cell line growth inhibition, 48 h
HCC 2998 = tested on: HCC 2998
HCT-116 = tested on: HCT-116
HT-29 = tested on: HT-29
IGROV-1 = tested on: IGROV-1
K562 = tested on: K562
LOX IMVI = tested on: LOX IMVI
M14 = tested on: M14
MDA-MB-435 = tested on: MDA-MB-435
MDA-N = tested on: MDA-N
OVCAR-5 = tested on: OVCAR-5
SF-539 = tested on: SF-539
SK-MEL-5 = tested on: SK-MEL-5
TK-10 = tested on: TK-10
UACC-257 = tested on: UACC-257
UACC-62 = tested on: UACC-62
UO-31 = tested on: UO-31
SR = tested on: SR

SMILES | GI50 (HCC 2998) | GI50 (HCT-116) | GI50 (HT-29) | GI50 (IGROV-1) | GI50 (K562) | GI50 (LOX IMVI) | GI50 (M14) | GI50 (MDA-MB-435) | GI50 (MDA-N) | GI50 (OVCAR-5) | GI50 (SF-539) | GI50 (SK-MEL-5) | GI50 (TK-10) | GI50 (UACC-257) | GI50 (UACC-62) | GI50 (UO-31) | GI50 (SR)
Nc1ccccc1C(=O)NNC(=O)c1ccccc1N | > 100 µM (inactive) | > 100 µM (inactive) | > 100 µM (inactive) | > 100 µM (inactive) | > 100 µM (inactive) | > 100 µM (inactive) | > 100 µM (inactive) | > 100 µM (inactive) | > 100 µM (inactive) | > 100 µM (inactive) | > 100 µM (inactive) | > 100 µM (inactive) | > 100 µM (inactive) | > 100 µM (inactive) | > 100 µM (inactive) | > 100 µM (inactive) | 
CN(C)Cc1nsc(N(C)C)n1 |  | > 100 µM (inactive) | > 100 µM (inactive) | > 100 µM (inactive) | > 100 µM (inactive) | > 100 µM (inactive) | > 100 µM (inactive) | > 100 µM (inactive) | > 100 µM (inactive) | > 100 µM (inactive) | > 100 µM (inactive) | > 100 µM (inactive) | > 100 µM (inactive) | > 100 µM (inactive) | > 100 µM (inactive) | > 100 µM (inactive) | 
Cc1ccc(S[C@@H](C)[C@@](O)(CF)CN(Cc2ccccc2)C(=O)C(F)(F)F)cc1 | 18.3 µM (inactive) | 11.4 µM (inactive) | 10.3 µM (inactive) | > 100 µM (inactive) |  | 40.3 µM (inactive) | 17.1 µM (inactive) | 19.6 µM (inactive) | 22.8 µM (inactive) | 14.8 µM (inactive) |  |  | 35.2 µM (inactive) | 20.9 µM (inactive) | 13.8 µM (inactive) | 16.6 µM (inactive) | 
COC(=O)c1nsc(OC)c1Cl | > 100 µM (inactive) | > 100 µM (inactive) | > 100 µM (inactive) | > 100 µM (inactive) | > 100 µM (inactive) | > 100 µM (inactive) | > 100 µM (inactive) | > 100 µM (inactive) | > 100 µM (inactive) | > 100 µM (inactive) | > 100 µM (inactive) | > 100 µM (inactive) | > 100 µM (inactive) | > 100 µM (inactive) | > 100 µM (inactive) | > 100 µM (inactive) | 
CCC1OC2C(CC=C(C)C)=C3OC(C)(O)C(C)(CC)C(=O)C3=C3OC(=O)C=C1C32 (stereo not given) | 34.8 µM (inactive) | 15.5 µM (inactive) |  |  | 26 µM (inactive) | 12.3 µM (inactive) | 27.7 µM (inactive) | 31.4 µM (inactive) |  | 65.3 µM (inactive) | 8.55 µM (inactive) | 16.5 µM (inactive) | 46.5 µM (inactive) | 26.8 µM (inactive) | 20.7 µM (inactive) | 15.3 µM (inactive) | 
C=C(C)C1CCC2=CC(CC3(C)OC3C3=CC(C(=O)OC)=C(C1)O3)OC2=O (stereo not given) |  | > 100 µM (inactive) | > 100 µM (inactive) | > 100 µM (inactive) | > 100 µM (inactive) | > 100 µM (inactive) | > 100 µM (inactive) | > 100 µM (inactive) | > 100 µM (inactive) | > 100 µM (inactive) | 73.3 µM (inactive) | 72.3 µM (inactive) | > 100 µM (inactive) | > 100 µM (inactive) |  | > 100 µM (inactive) | 83.2 µM (inactive)
C=CCn1c(-c2ccc([N+](=O)[O-])cc2)csc1=N | > 100 µM (inactive) | 37.3 µM (inactive) | 32 µM (inactive) | 59 µM (inactive) | 9.59 µM (inactive) | 20.3 µM (inactive) | 56.9 µM (inactive) | 43.5 µM (inactive) | 29.1 µM (inactive) | > 100 µM (inactive) |  | 14.8 µM (inactive) | 66.7 µM (inactive) | 13.1 µM (inactive) | 37.7 µM (inactive) | 37.2 µM (inactive) | 
Cc1ccc(S(=O)(=O)N2CCCSCCSCCCSCC2)cc1 | > 100 µM (inactive) | > 100 µM (inactive) | > 100 µM (inactive) | > 100 µM (inactive) | > 100 µM (inactive) | > 100 µM (inactive) | > 100 µM (inactive) | > 100 µM (inactive) |  | > 100 µM (inactive) | > 100 µM (inactive) | > 100 µM (inactive) | > 100 µM (inactive) | > 100 µM (inactive) | > 100 µM (inactive) | > 100 µM (inactive) | > 100 µM (inactive)
COc1cc(C(C)c2cc3c(cc2OCCNC(=O)COc2cc4c(cc2C(C)c2cc(OC)c(OC)c(OC)c2)OCO4)OCO3)cc(OC)c1OC (stereo not given) | > 100 µM (inactive) | 87.9 µM (inactive) | > 100 µM (inactive) | > 100 µM (inactive) | 73.1 µM (inactive) | 42.3 µM (inactive) | 85.3 µM (inactive) |  |  | 6.38 µM (inactive) | > 100 µM (inactive) | > 100 µM (inactive) | > 100 µM (inactive) | 6.56 µM (inactive) | 6.78 µM (inactive) | > 100 µM (inactive) | > 100 µM (inactive)
Cc1nc(-[n+]2nc(-c3ccncc3)nn2-c2ccccc2)sc1C | > 100 µM (inactive) | 13.4 µM (inactive) | 55.1 µM (inactive) | 5.01 µM (inactive) | 4.91 µM (inactive) | 2.69 µM (inactive) | 49.3 µM (inactive) | 23.4 µM (inactive) |  | 44.6 µM (inactive) | 8.53 µM (inactive) | 29.4 µM (inactive) | 21.8 µM (inactive) | 26.7 µM (inactive) | 8.36 µM (inactive) | 7.73 µM (inactive) | > 100 µM (inactive)
CCCc1c(OC)c(=O)c2c(OC)cc(OC)c3c4c(OC)cc(OC)c5c(=O)c(OC)c(CCC)c(c1c23)c54 | 20.1 µM (inactive) | 13.8 µM (inactive) | 11.4 µM (inactive) | 14.8 µM (inactive) |  | 7.4 µM (inactive) | 16.9 µM (inactive) | 16 µM (inactive) | 15.2 µM (inactive) | 15.2 µM (inactive) | 15.1 µM (inactive) | 10.7 µM (inactive) | 21 µM (inactive) | 20.7 µM (inactive) | 11.9 µM (inactive) | 15.5 µM (inactive) | 
COc1ccc2c(c1)SC1=Nc3sc4cc(OC)ccc4[n+]3CN12 |  | 41 µM (inactive) | 16.2 µM (inactive) | 24.9 µM (inactive) | 4.16 µM (inactive) |  | 33.1 µM (inactive) | 26.9 µM (inactive) | 26.1 µM (inactive) | 96.2 µM (inactive) | 42.2 µM (inactive) | 4.1 µM (inactive) | 51.4 µM (inactive) | 30.4 µM (inactive) | 11.7 µM (inactive) | 53 µM (inactive) | 5.83 µM (inactive)
COC(=O)C1=C(C(=O)OC)C2=S(SC3=C2CCCC3)S1 (stereo not given) | > 100 µM (inactive) |  | 18.7 µM (inactive) | 85.7 µM (inactive) | 4.35 µM (inactive) | 2.79 µM (inactive) | 24.8 µM (inactive) |  |  | 27.4 µM (inactive) | 25.1 µM (inactive) | 0.378 µM (active) | 30.1 µM (inactive) | 37.2 µM (inactive) | 26 µM (inactive) | 68.1 µM (inactive) | 
N=c1oc2ccccc2cc1C(=O)Nc1nccs1 | 35.2 µM (inactive) | 26.8 µM (inactive) | 46.6 µM (inactive) | 8.26 µM (inactive) | 13.9 µM (inactive) | 2.33 µM (inactive) | 19 µM (inactive) | 25.8 µM (inactive) |  | > 69.3 µM (inactive) | 5.75 µM (inactive) | 31 µM (inactive) | 7.85 µM (inactive) | 27 µM (inactive) | 32.2 µM (inactive) | 0.031 µM (active) | 3.24 µM (inactive)
CCC1(CC)SCc2nc3ccccc3n21 | 94.6 µM (inactive) | 23.9 µM (inactive) | 32.3 µM (inactive) | 34.2 µM (inactive) | 18.9 µM (inactive) | 34.8 µM (inactive) | 26.5 µM (inactive) | 26 µM (inactive) | 34.9 µM (inactive) | 45.6 µM (inactive) | 54.3 µM (inactive) | 20.9 µM (inactive) | 38.8 µM (inactive) | 27.4 µM (inactive) | 39.4 µM (inactive) | 35.4 µM (inactive) | 
COc1cc2oc(=O)cc(C)c2cc1OC |  | > 100 µM (inactive) | > 100 µM (inactive) | > 100 µM (inactive) | > 100 µM (inactive) | > 100 µM (inactive) | > 100 µM (inactive) | > 100 µM (inactive) | > 100 µM (inactive) | > 100 µM (inactive) | > 100 µM (inactive) | > 100 µM (inactive) | > 100 µM (inactive) | > 100 µM (inactive) | > 100 µM (inactive) | 66.7 µM (inactive) | > 100 µM (inactive)
Cc1cccc(N/C(=C(/C(Cl)=C(Cl)Cl)[N+](=O)[O-])n2nnc3ccccc32)c1 | 29.2 µM (inactive) | 18.9 µM (inactive) | 17.3 µM (inactive) |  | 35 µM (inactive) |  | 21.9 µM (inactive) | 20.4 µM (inactive) | 23.5 µM (inactive) | 16.6 µM (inactive) | 15.8 µM (inactive) |  |  | 22 µM (inactive) | 15.5 µM (inactive) | 16.5 µM (inactive) | 
CC1(C)C2CCC1(C)C(N/C(Sc1ccccc1)=C(/C(Cl)=C(Cl)Cl)[N+](=O)[O-])C2 (stereo not given) | 15.2 µM (inactive) | 15.5 µM (inactive) | 10.4 µM (inactive) |  | 6.35 µM (inactive) |  | 13.2 µM (inactive) | 10.4 µM (inactive) | 10.6 µM (inactive) | 13.9 µM (inactive) | 13.5 µM (inactive) |  |  | 14.3 µM (inactive) | 9.14 µM (inactive) | 13.2 µM (inactive) | 
